From US7482378B2, “Physiological cooling compositions” (Millenium Specialty Chemicals, Inc., priority 2004, dated 2009)

Columns and labels:
[1] = Relative cooling strength of individual coolants, organoleptic sequential dilution method versus standard 10 ppm WS-3 solution in water; type: in vivo; settings: relative to 10 ppm WS-3 in water assigned 10.0; values accepted in the art and confirmed by expert evaluation
Source text: The aqueous solutions of products for organoleptic tests were obtained by dissolving appropriate amounts of the products in propylene glycol PG and adding the PG solution to an appropriate amount of water.
A. Cooling strength values for individual coolants. Cooling strength values used in this invention for individual coolants were those generally accepted in the art and also additionally confirmed using expert evaluations conducted by Millennium Specialty Chemicals personnel on the basis of a sequential dilution method, i.e., a controlled dilution of samples to the concentration where their strength is about equal to the standard solution of WS-3. For purposes of Examples 55-60, a 10 ppm solution of WS-3 in water was used as the standard solution and was assigned a standardized cooling strength value of 10.0. The corresponding relative cooling strengths for the individual cooling agents were then assigned based upon an organoleptic determination of the approximate concentration of cooling agent that was required to provide about the same cooling strength as the standardized 10 ppm solution of WS-3.

Row | melting point [°C] | Molecule | Relative cooling strength [1]
1 | – | CCOC(=O)CNC(=O)C1CC(C)CCC1C(C)C (stereo not shown) [WS-5, N-(ethoxycarbonylmethyl)-3-p-menthane carboxamide] | about 16.7
2 | – | CC(C)[C@@H]1CC[C@@H](C)C[C@H]1OC(=O)CCCC(=O)O [MMG, monomenthyl glutarate] | about 3.5
3 | – | CC1CCC(C(C)C)C(OC(=O)C(C)O)C1 (stereo not drawn) [Menthyl Lactate, l-Menthyl ester of lactic acid] | about 2.9
4 | – | CCNC(=O)[C@@H]1C[C@H](C)CC[C@H]1C(C)C [WS-3, N-ethyl-3-p-menthane carboxamide] | 10.0
5 | – | Glyceryl ether of p-menthane-3-carboxylic acid [WS-30] | about 1.5
6 | – | CNC(=O)C(C)(C(C)C)C(C)C [WS-23, N,2,3-trimethyl-2-isopropyl butanamide] | about 5.0
7 | 147 to 150 | CC(C)[C@@H]1CC[C@@H](C)C[C@H]1C(=O)NC(C)(C)C [WS-14, N-tert-butyl-3-p-menthane carboxamide] | about 5.0
8 | 146 to 148 | CNC(=O)C1C(C)CCCC1(C)C (stereo not shown) [N,2,2,6-Tetramethylcyclohexane-1-carboxamide] | about 1.0
